Source: US20050178959A1, “Methods and compositions for assessing a sample by maldi mass spectrometry” (priority 2004, published 2005)
Non-standard residues stand in square brackets, D forms with d. No end group written: not given here. *: point of attachment. Biotin = O=C1N[C@H]2[C@H](CS[C@H]2CCCCC(=O)*)N1; pT = C[C@@H](OP(=O)(O)O)[C@H](N)C(=O)O; pS = N[C@@H](COP(=O)(O)O)C(=O)O

T1: GST-FBP21 (a protein having WW domain) (Homo sapiens, UniProt O75554)
T1 construct: GST
T1 sequence (O75554 1-376): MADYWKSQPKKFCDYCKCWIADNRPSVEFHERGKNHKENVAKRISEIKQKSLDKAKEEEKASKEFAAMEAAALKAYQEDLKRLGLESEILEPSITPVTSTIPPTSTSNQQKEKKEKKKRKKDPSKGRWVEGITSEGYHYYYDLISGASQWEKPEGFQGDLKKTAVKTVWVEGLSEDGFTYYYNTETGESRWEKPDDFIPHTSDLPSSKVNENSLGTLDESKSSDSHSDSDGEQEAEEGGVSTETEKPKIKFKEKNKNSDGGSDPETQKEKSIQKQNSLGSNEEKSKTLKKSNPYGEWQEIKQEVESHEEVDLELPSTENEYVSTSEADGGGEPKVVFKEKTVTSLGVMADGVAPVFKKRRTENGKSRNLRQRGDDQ

T2: GST-FBP21 (a protein having WW domain)
T2 sequence (O75554 whole entry, species assumed, looked up): T1 sequence (O75554 1-376)

B1: COXG biotinylated phosphopeptide (Biotin-…*EL-COOH) (peptide)
peptide: Biotin-SGSGVLIKRRS[pT]EL-OH
SMILES: CC[C@H](C)[C@H](NC(=O)[C@H](CC(C)C)NC(=O)[C@@H](NC(=O)CNC(=O)[C@H](CO)NC(=O)CNC(=O)[C@H](CO)NC(=O)CCCC[C@@H]1SC[C@@H]2NC(=O)N[C@@H]21)C(C)C)C(=O)N[C@@H](CCCCN)C(=O)N[C@@H](CCCNC(=N)N)C(=O)N[C@@H](CCCNC(=N)N)C(=O)N[C@@H](CO)C(=O)N[C@H](C(=O)N[C@@H](CCC(=O)O)C(=O)N[C@@H](CC(C)C)C(=O)O)[C@@H](C)OP(=O)(O)O
B2: Kir2.1 biotinylated peptide (Biotin-…-COOH) (peptide)
peptide: Biotin-SGSGPRPLRRESEI-OH
SMILES: CC[C@H](C)[C@H](NC(=O)[C@H](CCC(=O)O)NC(=O)[C@H](CO)NC(=O)[C@H](CCC(=O)O)NC(=O)[C@H](CCCNC(=N)N)NC(=O)[C@H](CCCNC(=N)N)NC(=O)[C@H](CC(C)C)NC(=O)[C@@H]1CCCN1C(=O)[C@H](CCCNC(=N)N)NC(=O)[C@@H]1CCCN1C(=O)CNC(=O)[C@H](CO)NC(=O)CNC(=O)[C@H](CO)NC(=O)CCCC[C@@H]1SC[C@@H]2NC(=O)N[C@@H]21)C(=O)O
B3: Kir2.1* biotinylated phosphopeptide (Biotin-…*EI-COOH) (peptide)
peptide: Biotin-SGSGPRPLRRE[pS]EI-OH
SMILES: CC[C@H](C)[C@H](NC(=O)[C@H](CCC(=O)O)NC(=O)[C@H](COP(=O)(O)O)NC(=O)[C@H](CCC(=O)O)NC(=O)[C@H](CCCNC(=N)N)NC(=O)[C@H](CCCNC(=N)N)NC(=O)[C@H](CC(C)C)NC(=O)[C@@H]1CCCN1C(=O)[C@H](CCCNC(=N)N)NC(=O)[C@@H]1CCCN1C(=O)CNC(=O)[C@H](CO)NC(=O)CNC(=O)[C@H](CO)NC(=O)CCCC[C@@H]1SC[C@@H]2NC(=O)N[C@@H]21)C(=O)O
B4: COXD biotinylated peptide (Biotin-…-COOH) (peptide)
peptide: Biotin-SGSGVLIKRRSTEL-OH
SMILES: CC[C@H](C)[C@H](NC(=O)[C@H](CC(C)C)NC(=O)[C@@H](NC(=O)CNC(=O)[C@H](CO)NC(=O)CNC(=O)[C@H](CO)NC(=O)CCCC[C@@H]1SC[C@@H]2NC(=O)N[C@@H]21)C(C)C)C(=O)N[C@@H](CCCCN)C(=O)N[C@@H](CCCNC(=N)N)C(=O)N[C@@H](CCCNC(=N)N)C(=O)N[C@@H](CO)C(=O)N[C@H](C(=O)N[C@@H](CCC(=O)O)C(=O)N[C@@H](CC(C)C)C(=O)O)[C@@H](C)O

Assays:
[1] = test system: GST-CAP1 (a protein having PDZ domain); assay: Peptide capture on streptavidin-agarose beads in filter plate, tryptic digestion, MALDI MS detection of bound GST-CAP1; settings: sample GST-CAP1; m/z as printed in cell above (1358.8 or 1152.6); signal size of about 1000 or more indicates significant binding
Method: (§1) To make the peptide array, the wells of a multiwell (i.e., 96-well filtration plate from Millipore having a pore size of 1.2 μm) filtration plate were first filled with a known volume of a suspension containing Streptavidin-linked agarose beads (Sigma). The biotinylated peptides were added (each in a separate well) and allowed to incubate with the avidin beads for a defined time interval following which vacuum (5-6 in. Hg) was applied to remove excess liquid. The immobilized peptides were then ready to be incubated with the protein mixture (e.g., a brain extract). After incubation, the peptide-protein complexes were washed in parallel, and subsequently subjected to enzymatic digestion (following in-gel digestion protocol). After digestion directly in the membrane plate, the digests were transferred to a MALDI plate for MS analysis, after concentration using a C18 resin-containing Millipore C18 ZIPTIP™ pipette tips.
(§2) In detail, 40 μL of streptavidin-agarose conjugate (Sigma S1638) was added to each well of a 96 well membrane filter plate washed with 200 μL of 1 mM TRIS HCl pH 7.5 (TRIS buffer) buffer using vacuum filtration. The beads were not allowed to dry out. The capture agents (e.g., biotinylated peptides, biotinylated antibodies, tagged proteins) were diluted with 1 mM TRIS HCl pH 7.5 buffer and 20 μL of each capture agent solution (at concentration of 1-2 mg/mL) was added to wells containing the avidin-agarose conjugate. The beads and capture agent were incubated for 1.5 to 2 hrs at room temperature using an orbital shaker (the plate was sealed during the incubation to avoid evaporation of the buffer). After incubation, excess solution was removed and the beads were washed with 200 μL of 1 mM TRIS HCl pH 7.5. A sample containing a protein of interest in TRIS buffer was added to the beads and the sample and beads were incubated overnight at room temperature using an orbital shaker (again using a sealed plate). The liquid was removed and the beads were washed using 200 μL of TRIS buffer. The capture agent-protein complexes, which are attached to the avidin-sepharose beads, were digested with 25 μL of trypsin in TRIS (concentration 20 μg/mL) at 45C for 45 min (again in a sealed plate). The 96 well plate containing the beads was placed in a manifold, and a vacuum was applied to collect each digest in a separate well of another 96-well plate. Using C18 ZIPTIP™ pipette tips (Millipore Corporation or equivalent) the digested peptides were extracted by prewashing the ZIPTIP™ with water/acetonitrile 1:1 then water containing 0.1% trifluoro-acetic acid, and then using the ZIPTIP™ pipette tips to capture the peptides from each well by moving each sample into and out of the tip at least 10 times, and wash the ZIPTIP™ pipette tip with water containing 0.1%TFA (trifluoroacetic acid). The peptides were eluted from the ZIPTIP™ pipette tip with MALDI matrix solution (e.g., 3-4 μL of HCCA at 0.5-1 mg/mL in actetonitrile/water or methanol/acetonitrile/water containing acetic acid) and spotted directly onto a MALDI sample plate.
(§3) The headers for each of the columns of Table 2 indicate, for each experiment, the peptide used as a capture agent. The first column of Table 2 indicates, for each experiment, the sample used. GST-CAP1, GST-FBP21, GST-14-3-3 are described above. “Brain extract” is a soluble protein extract of homogenized mouse brain, and, “QC” indicates the negative controls performed. M/z values indicate mass-to-charge ratios, and numbers in brackets indicate the size of the signal obtained, indicating the amount of the analytes present. In general, a signal size of about 1000 or more indicates significant binding.

[2] = molecular target: T1, GST-FBP21 (a protein having WW domain); assay: Peptide capture on streptavidin-agarose beads in filter plate, tryptic digestion, MALDI MS detection of bound GST-FBP21; settings: sample GST-FBP21; m/z 1138.7 or 1152.8; signal size of about 1000 or more indicates significant binding
Method: as §1, §2
The headers for each of the columns of Table 2 indicate, for each experiment, the peptide used as a capture agent. The first column of Table 2 indicates, for each experiment, the sample used. GST-CAP1, GST-FBP21, GST-14-3-3 are described above. “Brain extract” is a soluble protein extract of homogenized mouse brain, and, “QC” indicates the negative controls performed. […]

GST-14-3-3 [3] = assay: Peptide capture on streptavidin-agarose beads in filter plate, tryptic digestion, MALDI MS detection of bound GST-14-3-3; type: binding; settings: sample GST-14-3-3; for signal size (number in brackets) of MALDI MS signal: m/z1245.7, signal size of about 1000 or more indicates significant binding; for signal size (number in brackets) of second MALDI MS signal: m/z1255.9, for SmB the signal is […]
Method: as §1, §2, §3

[4] = test system: mouse brain protein extract; assay: Peptide capture of proteins from brain extract, tryptic digestion, MALDI MS; type: binding; settings: for signal size of MALDI MS signal: sample brain extract (soluble protein extract of homogenized mouse brain), about 1000 or more indicates significant binding
Method: as §1
as §2, with “Using C18 ZIPTIP™ pipette tips (Millipore Corporation or equivalent) the digested peptides were extracted by prewashing the ZIPTIP™ with water/acetonitrile 1:1 then water containing 0.1% trifluoro-acetic acid, and then using the ZIPTIP™ pipette tips to capture the peptides from each well by moving each sample into and out of the tip at least 10 times, and wash the ZIPTIP™ pipette tip with water containing 0.1%TFA (trifluoroacetic acid). The peptides were eluted from the ZIPTIP™ pipette tip with MALDI matrix solution (e.g., 3-4 μL of HCCA at 0.5-1 mg/mL in actetonitrile/water or methanol/acetonitrile/water containing acetic acid) and spotted directly onto a MALDI sample plate.” left out

p60Src = p60Src (Homo sapiens, UniProt P12931); assay: SmB immobilized on avidin beads incubated with Src, digestion, MALDI MS (QC); type: binding
Excerpt: The following were used as targets: GST-CAP1 (a protein having PDZ domain), GST-FBP21 (a protein having WW domain), GST-14-3-3, p60Src (a protooncogene tyrosine protein kinase known not to bind to any of the peptides listed above), and a mouse brain protein extract. Four of the 8 target peptides are proline-rich peptides, which are identified as SmB, CDC25, LD10 and WBP1, and are known to bind SH3 domains.
as §1, with “After digestion directly in the membrane plate, the digests were transferred to a MALDI plate for MS analysis, after concentration using a C18 resin-containing Millipore C18 ZIPTIP™ pipette tips.” left out
Significant binding was detected between several capture agents and several probes.

[5] = molecular target: T2, GST-FBP21 (a protein having WW domain); assay: biotinylated peptide on streptavidin-agarose beads, pull-down, trypsin digest, MALDI-MS, ion m/z1138.7
GST-14-3-3 [6] = assay: biotinylated peptide on streptavidin-agarose beads, pull-down, trypsin digest, MALDI-MS, ion m/z1245.7
[7] = molecular target: T2, GST-FBP21 (a protein having WW domain); assay: biotinylated peptide on streptavidin-agarose beads, pull-down, trypsin digest, MALDI-MS, ion m/z1152.8
[8] = molecular target: GST-CAP1 (a protein having PDZ domain); assay: biotinylated peptide on streptavidin-agarose beads, pull-down, trypsin digest, MALDI-MS, ion m/z1358.8

Molecule | signal size (number in brackets) of MALDI MS signal [1] | signal size (number in brackets) of MALDI MS signal [2] | signal size (number in brackets) of MALDI MS signal (GST-14-3-3 [3]) | signal size [5] | signal size (GST-14-3-3 [6]) | also measured
Biotin-SGSGEQPLT*PVTDL [CDC25] | (480) | (500) | (0) |  |  | signal size (number in brackets) of second MALDI MS signal (GST-14-3-3 [3]): (800)
Biotin-SGSGVLIKRRSTEL-OH [COXD] | (1,100) | (200) | (3600) |  |  | signal size of MALDI MS signal [4]: <50
Biotin-SGSGVLIKRRST*EL-COOH [COXG] | 0 | (30,000) | (500) |  |  | signal size of MALDI MS signal [4]: <100
Biotin-SGSGGAPPTPPPLPP [LD10] | (1,600) | (15,000) | (150) |  |  | 
Biotin-PPGMRPPPPGMRRGPPPPGMRPPRP [SmB] | 0 |  | (0) |  |  | signal size (number in brackets) of second MALDI MS signal (GST-14-3-3 [3]): (3,000) is; binding of WD11 repeat protein (WDR11) from brain extract ([4]; brain extract, spectra matched to known WD11 repeat protein (Table 3)): binds only the SmB peptide; binding of p60Src (p60Src): did not significantly bind
Biotin-SGSGGTPPPPYTVG [WBP1] | 0 | (9,000) | 0 |  |  | signal size of MALDI MS signal [4]: <100
Biotin-SGSGGTPPPPYTVG [WBP1 biotinylated peptide (Biotin-…)] |  |  |  | 9000 |  | 
B1 |  |  |  | 30000 | 500 | 
B2 |  |  |  |  | 400 | signal size [7]: 900; signal size [8]: 250
B3 |  |  |  |  | 8000 | signal size [7]: 8000
B4 |  |  |  | 200 | 3600 | signal size [8]: 1100
Biotin-SGSGEQPL[pT]PVTDL [CDC25 biotinylated phosphopeptide (Biotin-…*PVTDL)] |  |  |  | 500 |  | signal size [8]: 480
